Here are results for one compound from US10207985B2, “Compounds” (SYNGENTA PARTICIPATIONS AG, priority 2013, dated 2019).

SMILES strings stand for the structures.

A word on the melting point: it is the temperature of the solid-liquid transition. Compound `Cc1ccsc1C1CC[C@H]1NC(=O)c1ccccc1C(F)(F)F` (stereo partly shown) [Compound 116-4] came in with a melting point of 111 to 112 °C.
